Counter-ions that a name gives are not always drawn.

One test has as its system HTT. Kind of test: Mini-gene reporter assay-HTT (firefly luciferase, exon inclusion). Particulars: HTT Minigene, 5 μM; read-out: % Efficacy at 5 μM. The format is cell-based. From the text: Mini-gene reporter constructs for each target site were constructed by first PCR amplifying the region-of-interest including the sequence of the alternatively skipped, sequences of the immediate upstream and downstream introns, and sequences of the immediate upstream and downstream exons. Then the 3′end of the amplified sequence was ligated to a firefly luciferase reporter gene and cloned into the pcDNA3.1 vector backbone. The final reporter construct was transiently transfected into HEK293 cells using Lipofectamine 3000 transfection reagents. Compounds that can induce the inclusion of the skipped exon in the reporter construct would increase the reporter firefly luciferase activity.
Test compounds were diluted in duplicates and dispensed into an assay plate. Transient mini-gene reporter cell line stock was resuspended and dispensed into the assay plate. Assay plates were then centrifuged and incubated. A luciferase reagent (e.g. ONE-Glo firefly luciferase reagent from Promega®) was added to the assay plate and the luminescence (RLU) signals recorded. EC50 values were determined by curve fitting in Levenberg-Marquardt algorithm.
(In general: A reporter such as luciferase makes a cellular process visible.)
As for `COc1cc(-c2ccc(-c3ccc(C4CN(C5CCN(C6CC6)C5)C4)nn3)c(O)c2)cc2cn(C)nc12` (stereo not shown) [Compound 139], the Emax at 5 µM lay in the range of 25 to 75%.

Consider `Cc1cn2cc(-c3ccc(-c4ccc(C5CN(C(C)Cc6cnn(C)c6)C5)nn4)c(O)c3)cc(F)c2n1` (stereo not shown) [Compound 106], for which the Emax at 5 µM is more than 750%.

`COCC(C)N1CC(c2ccc(-c3ccc(-c4cc(OC)c5nn(C)cc5c4)cc3O)nn2)C1` (stereo not shown) [Compound 143]: the Emax at 5 µM was more than 750%.

For `COc1cc(-c2ccc(-c3ccc(C4CN(C5CC6(CCOCC6)C5)C4)nn3)c(O)c2)cc2cn(C)nc12` [Compound 171], the Emax at 5 µM is 25 to 75%.

On to `COc1cc(-c2ccc(-c3ccc(C4CN(C(C)C5CCOC5)C4)nn3)c(O)c2)cc2cn(C)nc12` (stereo not shown) [Compound 151], for which the Emax at 5 µM was more than 750%.

For the compound `CCn1cc(CN2CC(c3ccc(-c4ccc(-c5cc(F)c6nc(C)cn6c5)cc4O)nn3)C2)nn1` [Compound 123], the Emax at 5 µM was 25 to 75%.

Consider `COc1cc(-c2ccc(-c3ccc(C4CN(C(C)Cc5cnccn5)C4)nn3)c(O)c2)cc2cn(C)nc12` (stereo not shown) [Compound 173], for which the Emax at 5 µM was 25 to 75%.

As to `Cc1cn2cc(-c3ccc(-c4ccc(C5CN(Cc6ccc[nH]c6=O)C5)nn4)c(O)c3)cc(F)c2n1` [Compound 121], the Emax at 5 µM is 25 to 75%.

Consider `Cc1cn2cc(-c3ccc(-c4ccc(C5CN(C(C)Cc6cnccn6)C5)nn4)c(O)c3)cc(F)c2n1` (stereo not shown) [Compound 115], for which the Emax at 5 µM lay in the range of 25 to 75%.

Take `CCn1cnc(CN2CC(c3ccc(-c4ccc(-c5cc(F)c6nc(C)cn6c5)cc4O)nn3)C2)c1` [Compound 125]: the Emax at 5 µM fell in the range of 25 to 75%.

In the case of `COc1cc(-c2ccc(-c3ccc(C4CN(Cc5ccccn5)C4)nn3)c(O)c2)cc2cn(C)nc12` [Compound 129], the Emax at 5 µM is less than 25%.

Consider `COc1cc(-c2ccc(-c3ccc(C4CN(C(C)C5CCOCC5)C4)nn3)c(O)c2)cc2cn(C)nc12` (stereo not shown) [Compound 156], for which the Emax at 5 µM was more than 750%.

Take `Cc1cn2cc(-c3ccc(-c4ccc(C5CN(Cc6c(C)n[nH]c6C)C5)nn4)c(O)c3)cc(F)c2n1` [Compound 74]: the Emax at 5 µM fell in the range of 25 to 75%.

`Cc1cn2cc(-c3ccc(-c4ccc(C5CN(C6CCOC6)C5)nn4)c(O)c3)cc(F)c2n1` (stereo not shown) [Compound 89]: the Emax at 5 µM was more than 750%.

Turning to `Cc1cn2cc(-c3ccc(-c4ccc(C5CN(C6CCSC6)C5)nn4)c(O)c3)cc(F)c2n1` (stereo not shown) [Compound 70], the Emax at 5 µM fell in the range of 25 to 75%.

`COCn1nccc1CN1CC(c2ccc(-c3ccc(-c4cc(F)c5nc(C)cn5c4)cc3O)nn2)C1` [Compound 127]: the Emax at 5 µM was less than 25%.

For the compound `COc1cc(-c2ccc(-c3ccc(C4CN(CC5CC=CCC5)C4)nn3)c(O)c2)cc2cn(C)nc12` (stereo not shown) [Compound 131], the Emax at 5 µM was more than 750%.

Turning to `COCCC(C)N1CC(c2ccc(-c3ccc(-c4cc(F)c5nc(C)cn5c4)cc3O)nn2)C1` (stereo not shown) [Compound 76], the Emax at 5 µM is more than 750%.

For `Cc1cn2cc(-c3ccc(-c4ccc(C5CN(Cc6c[nH]nc6C)C5)nn4)c(O)c3)cc(F)c2n1` [Compound 73], the Emax at 5 µM is more than 750%.

Take `Cc1cn2cc(-c3ccc(-c4ccc(C5CN(C6COC(C)C6)C5)nn4)c(O)c3)cc(F)c2n1` (stereo not shown) [Compound 119]: the Emax at 5 µM fell in the range of 25 to 75%.

On to `COc1cc(-c2ccc(-c3ccc(C4CN(Cc5ccc(O)nc5)C4)nn3)c(O)c2)cc2cn(C)nc12` [Compound 159], for which the Emax at 5 µM is 25 to 75%.

With `COc1cc(-c2ccc(-c3ccc(C4CN(CC5CC6CC6C5)C4)nn3)c(O)c2)cc2cn(C)nc12` (stereo not shown) [Compound 185], the Emax at 5 µM lay in the range of 25 to 75%.

Consider `COc1cc(-c2ccc(-c3ccc(C4CN(C5CCC(OC)CC5)C4)nn3)c(O)c2)cc2cn(C)nc12` (stereo not shown) [Compound 144], for which the Emax at 5 µM is more than 750%.

With `COCC(C)N1CC(c2ccc(-c3ccc(-c4cc(F)c5nc(C)cn5c4)cc3O)nn2)C1` (stereo not shown) [Compound 84], the Emax at 5 µM was more than 750%.

For `COc1ccc(CN2CC(c3ccc(-c4ccc(-c5cc(OC)c6nn(C)cc6c5)cc4O)nn3)C2)cn1` [Compound 153], the Emax at 5 µM is less than 25%.

For the compound `CCn1cc(CN2CC(c3ccc(-c4ccc(-c5cc(F)c6nc(C)cn6c5)cc4O)nn3)C2)cn1` [Compound 77], the Emax at 5 µM is more than 750%.

In the case of `COc1cc(-c2ccc(-c3ccc(C4CN(Cc5cccnc5C)C4)nn3)c(O)c2)cc2cn(C)nc12` [Compound 150], the Emax at 5 µM was in the range of 25 to 75%.

Staying with this test, now noted: Homo sapiens; HTT mini-gene firefly luciferase reporter transiently transfected into HEK293 cells.
A word on the EC50: it is the concentration giving half of the maximal effect. Low readings indicate a more potent agent, high ones a less potent agent. On to `Cc1cc2cc(-c3ccc(-c4ccc(C5CN(C6CCOCC6)C5)nn4)c(O)c3)ccn2n1` [Compound 192, 5-(2-methylpyrazolo[1,5-a]pyridin-5-yl)-2-(6-(1-(tetrahydro-2H-pyran-4-yl)azetidin-3-yl)pyridazin-3-yl)phenol 2,2,2-trifluoroacetate], for which the EC50 was not below 1000 nM.

In the case of `Cc1cn2cc(-c3ccc(-c4ccc(C5CNC5)nn4)c(O)c3F)cc(F)c2n1` [Compound 10, 6-[6-(azetidin-3-yl)pyridazin-3-yl]-2-fluoro-3-{8-fluoro-2-methylimidazo[1,2-a]pyridin-6-yl}phenol], the EC50 is less than 50 nM.

With `CCN1CC(c2ccc(-c3ccc(-c4cn5cc(C)nc5c(C)n4)cc3O)nn2)C1` [Compound 32, 5-{2,8-dimethylimidazo[1,2-a]pyrazin-6-yl}-2-[6-(1-ethylazetidin-3-yl)pyridazin-3-yl]phenol], the EC50 was not below 1000 nM.

For `CCN1CC(c2ccc(-c3ccc(-c4cc(C)c5nn(C)cc5c4)cc3O)nn2)C1` [Compound 34, 5-(2,7-dimethyl-2H-indazol-5-yl)-2-[6-(1-ethylazetidin-3-yl)pyridazin-3-yl]phenol], the EC50 lay within 50 to 500 nM.

Take `Cc1cn2nc(-c3ccc(-c4ccc(C5CNC5)nn4)c(O)c3)ccc2n1` [Compound 31, 2-[6-(azetidin-3-yl)pyridazin-3-yl]-5-{2-methylimidazo[1,2-b]pyridazin-6-yl}phenol]: the EC50 lay in the range of 500 to 1000 nM.

Turning to `CCOc1cc(-c2ccc(-c3ccc(C4CN(C)C4)nn3)c(O)c2)cc2cn(C)nc12` [Compound 55, 5-(7-ethoxy-2-methyl-2H-indazol-5-yl)-2-[6-(1-methylazetidin-3-yl)pyridazin-3-yl]phenol], the EC50 was not below 1000 nM.

`Cc1cc2cc(-c3ccc(-c4ccc(C5CNC5)nn4)c(O)c3)cc(C)n2n1` [Compound 29, 2-[6-(azetidin-3-yl)pyridazin-3-yl]-5-{2,7-dimethylpyrazolo[1,5-a]pyridin-5-yl}phenol] returned an EC50 of 500 to 1000 nM.

With `CCN1CC(c2ccc(-c3ccc(-c4cc5cn(C)nc5c(OC)n4)cc3O)nn2)C1` [Compound 52, 2-[6-(1-ethylazetidin-3-yl)pyridazin-3-yl]-5-{7-methoxy-2-methyl-2H-pyrazolo[3,4-c]pyridin-5-yl}phenol], the EC50 is 50 to 500 nM.

In turn, `Cn1cc2nc(-c3ccc(-c4ccc(C5CN(C6CCOCC6)C5)nn4)c(O)c3)ccc2n1` [Compound 51, 5-{2-methyl-2H-pyrazolo[4,3-b]pyridin-5-yl}-2-{6-[1-(oxan-4-yl)azetidin-3-yl]pyridazin-3-yl}phenol] yielded an EC50 of 500 to 1000 nM.

As to `Cc1cn2cc(-c3ccc(-c4ccc(C5CN(C)C5)nn4)c(O)c3)cc(C)c2n1` [Compound 35, 5-{2,8-dimethylimidazo[1,2-a]pyridin-6-yl}-2-[6-(1-methylazetidin-3-yl)pyridazin-3-yl]phenol], the EC50 is 500 to 1000 nM.

The compound `Cn1cc2cc(-c3ccc(-c4ccc(C5CNC5)nn4)c(O)c3)ncc2n1` [Compound 44, 2-(6-(azetidin-3-yl)pyridazin-3-yl)-5-(2-methyl-2H-pyrazolo[3,4-c]pyridin-5-yl)phenol hydrochloride] had an EC50 of 500 to 1000 nM.

`Cc1cn2cc(-c3ccc(-c4ccc(C5CNC5)nn4)c(O)c3)nc(C)c2n1` [Compound 9, 2-[6-(azetidin-3-yl)pyridazin-3-yl]-5-{2,8-dimethylimidazo[1,2-a]pyrazin-6-yl}phenol] yielded a half-maximal effective concentration (EC50) of 50 to 500 nM.

The compound `Cc1cn2cc(-c3ccc(-c4ccc(C5CNC5)nn4)c(O)c3)ccc2n1` [Compound 2, 2-(6-(azetidin-3-yl)pyridazin-3-yl)-5-(2-methylimidazo[1,2-a]pyridin-6-yl)phenol] gave an EC50 of 50 to 500 nM.

For `CCOc1cc(-c2ccc(-c3ccc(C4CN(CC)C4)nn3)c(O)c2)cc2cn(C)nc12` [Compound 56, 5-(7-ethoxy-2-methyl-2H-indazol-5-yl)-2-[6-(1-ethylazetidin-3-yl)pyridazin-3-yl]phenol], the EC50 is 500 to 1000 nM.

Compound `Cc1cn2nc(-c3ccc(-c4ccc(C5CN(C)C5)nn4)c(O)c3)cc(C)c2n1` [Compound 30, 5-{2,8-dimethylimidazo[1,2-b]pyridazin-6-yl}-2-[6-(1-methylazetidin-3-yl)pyridazin-3-yl]phenol] registered an EC50 not below 1000 nM.

Compound `Cc1cn2nc(-c3ccc(-c4ccc(C5CN(C)C5)nn4)c(O)c3)ccc2n1` [Compound 37, 2-[6-(1-methylazetidin-3-yl)pyridazin-3-yl]-5-{2-methylimidazo[1,2-b]pyridazin-6-yl}phenol] showed an EC50 of 50 to 500 nM.

The compound `Cc1cn2cc(-c3ccc(-c4ccc(C5CN(C)C5)nn4)c(O)c3)ncc2n1` [Compound 39, 2-[6-(1-methylazetidin-3-yl)pyridazin-3-yl]-5-{2-methylimidazo[1,2-a]pyrazin-6-yl}phenol] came in with an EC50 of 50 to 500 nM.

Turning to `CCN1CC(c2ccc(-c3ccc(-c4ccc5nn(C)cc5c4)cc3O)nn2)C1` [Compound 24, 2-[6-(1-ethylazetidin-3-yl)pyridazin-3-yl]-5-(2-methyl-2H-indazol-5-yl)phenol], the EC50 fell in the range of 50 to 500 nM.

As for `CCN1CC(c2ccc(-c3ccc(-c4cc(F)c5nc(C)cn5c4)cc3O)nn2)C1` [Compound 17, 2-[6-(1-ethylazetidin-3-yl)pyridazin-3-yl]-5-{8-fluoro-2-methylimidazo[1,2-a]pyridin-6-yl}phenol], the EC50 fell in the range of 50 to 500 nM.
